Measurements: patent US9540371B2, “Substituted quinazolin-4(3H)-ones, pyrido[3,4-d]pyrimidin-4(3H)-ones, pyrido[3,2-d]pyrimidin-4(3H)-ones and pyrido[2,3-d]pyrimidin-4(3H)-ones as positive allosteric modulators of muscarinic acetycholine receptor M1” (Vanderbilt University, priority 2013, dated 2017)

Each compound was assayed against T1, mAChR M1 (UniProt P11229) (assay: mAChR M1 cell-based functional assay (calcium mobilization, PAM mode)). Conditions: calcium flux in CHO-K1 cells expressing mAChR M1; increase in the EC20 acetylcholine response; >10 μM estimated where no plateau but >20% increase in ACh response.
T1 sequence (P11229 1-460): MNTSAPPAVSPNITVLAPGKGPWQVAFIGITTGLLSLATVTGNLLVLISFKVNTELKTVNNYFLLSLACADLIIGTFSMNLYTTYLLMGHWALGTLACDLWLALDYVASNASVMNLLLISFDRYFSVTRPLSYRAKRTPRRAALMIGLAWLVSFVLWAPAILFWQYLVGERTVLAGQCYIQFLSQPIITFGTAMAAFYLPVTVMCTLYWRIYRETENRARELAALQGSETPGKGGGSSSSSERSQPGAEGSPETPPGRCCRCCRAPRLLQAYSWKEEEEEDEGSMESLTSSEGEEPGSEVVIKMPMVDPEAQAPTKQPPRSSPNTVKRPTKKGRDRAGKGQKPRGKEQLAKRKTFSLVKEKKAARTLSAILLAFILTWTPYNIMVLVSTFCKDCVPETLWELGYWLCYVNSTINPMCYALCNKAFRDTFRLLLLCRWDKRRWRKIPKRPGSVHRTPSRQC
Excerpt: Chinese hamster ovary (CHO-K1) cells stably expressing rat (r)M1 were purchased from the American Type Culture Collection and cultured according to their indicated protocol. CHO cells stably expressing human (h)M2, hM3, and hM5 were described previously (Levey, A. I., et al., J Neurosci. 1991, 11, 3218-3226.); hM1 and hM4 cDNAs were purchased from Missouri S&T cDNA Resource; rM4 cDNA was provided by T. I. Bonner (National Institutes of Health, Bethesda, Md.). rM2 and rM3 were cloned from a rat brain cDNA library and sequence verified. hM1, rM2, rM3, hM4, and rM4 cDNAs were used to stably transfect CHO-K1 cells purchased from the American Type Culture Collection using Lipofectamine® 2000 (Thermo Fisher Scientific Inc.). To make stable rM2, hM2, hM4, and rM4 cell lines for use in calcium mobilization assays, these cells also were stably transfected with a chimeric G-protein (Gqi5) (provided by B. R. Conklin, University of California, San Francisco) using Lipofectamine® 2000. rM1, hM1, rM3, hM3, rM5, and hM5 cells were grown in Ham's F-12 medium containing 10% heat-inactivated fetal bovine serum (FBS), 20 mM HEPES, and 50 μg/mL G418 sulfate. rM2-Gqi5, hM2-Gqi5, and hM4-Gqi5 cells were grown in the same medium also containing 500 μg/mL hygromycin B. Stable rM4-Gqi5 cells were grown in DMEM containing 10% heat-inactivated FBS, 20 mM HEPES, 400 μg/mL G418 sulfate, and 500 μg/mL hygromycin B.
For high throughput measurement of agonist-evoked increases in intracellular calcium, CHO-K1 cells stably expressing muscarinic receptors were plated in growth medium lacking G418 and hygromycin B at 15,000 cells/20 μL/well in Greiner 384-well black-walled, tissue culture (TC)-treated, clear-bottom plates (VWR). Cells were incubated overnight at 37° C. and 5% CO2. The next day, cells were washed using an ELX 405 (BioTek) with four washes (80 μL) of assay buffer then aspirated to 20 μL. Next, 20 μL of 16 μM Fluo-4/acetoxymethyl ester (Invitrogen, Carlsbad, Calif.) prepared as a 2.3 mM stock in DMSO and mixed in a 1:1 ratio with 10% (w/v) Pluronic F-127 and diluted in assay buffer was added to the wells and the cell plates were incubated for 50 min at 37° C. and 5% CO2. Dye was removed by washing with the ELX 405 (four 80 μL washes of assay buffer) then aspirated to 20 μL. Compound master plates were formatted in an 11 point CRC format (1:3 dilutions) in 100% DMSO with a starting concentration of 10 mM using the BRAVO liquid handler (Agilent). Test compound CRCs were then transferred to daughter plates (240 nL) using the Echo acoustic plate reformatter (Labcyte, Sunnyvale, Calif.) and then diluted into assay buffer (40 μL) to a 2× stock using a Thermo Fisher Combi (Thermo Fisher Scientific, Waltham, Mass.).
Calcium flux was measured using the Functional Drug Screening System (FDSS) 6000 (Hamamatsu Corporation, Tokyo, Japan) as an increase in the fluorescent static ratio. Compounds were applied to cells (20 μL, 2X) using the automated system of the FDSS 6000 at 4 s into the 300 s protocol and the data were collected at 1 Hz. At 144 s into the 300 s protocol, 10 μL of an EC20 concentration of the muscarinic receptor agonist acetylcholine was added (5X), followed by the addition of […] concentration of acetylcholine at the 230 s time point (5X). Agonist activity was analyzed as a concentration—dependent increase in calcium mobilization upon compound addition. Positive allosteric modulator activity was analyzed as a concentration-dependent increase in the EC20 acetylcholine response. Antagonist activity was analyzed as a concentration-dependent decrease in the EC80 acetylcholine response. Concentration-response curves were generated using a four -parameter logistical equation in XLFit curve fitting software (IDBS, Bridgewater, N.J.) for Excel (Microsoft, Redmond, Wash.) or Prism (GraphPad Software, Inc., San Diego, Calif.).
The calcium mobilization assay was also used to determine “efficacy”. […]

Compound | EC50
O=c1c2ccccc2ncn1Cc1ccc(-n2cccn2)cc1 [Compound B2] | > 10 µM
Cn1cc(-c2ccc(Cn3cnc4ccccc4c3=O)cc2)cn1 [Compound B3] | > 10 µM
O=c1c2cccnc2ncn1Cc1ccc(-n2cccn2)cc1 [Compound B5] | > 10 µM
Cn1cc(-c2ccc(Cn3cnc4ncccc4c3=O)cc2)cn1 [Compound B6] | > 10 µM
Cn1cc2c(-c3cc(F)c(Cn4cnc5cnccc5c4=O)c(F)c3)cccc2n1 [Compound B7, 3-(2,6-Difluoro-4-(2-Methyl-2H-Indazol-4-yl)Benzyl)Pyrido[3,4-D]Pyrimidin-4(3H)-one] | 0.6 µM
O=c1c2ccncc2ncn1Cc1ccc(-n2cccn2)cc1 [Compound B8] | > 10 µM
Cn1cc(-c2ccc(Cn3cnc4cnccc4c3=O)cc2)cn1 [Compound B9] | 4.9 µM
O=c1c2ncccc2ncn1Cc1ccc(-n2cccn2)cc1 [Compound B10] | > 10 µM
Cn1cc(-c2ccc(Cn3cnc4cccnc4c3=O)cc2)cn1 [Compound B11] | > 10 µM
Cn1cc2c(-c3cc(F)c(Cn4cnc5cccnc5c4=O)c(F)c3)cccc2n1 [Compound B12] | 3.6 µM
